This is an account of results in US20210246115A1 (Bioimics AB, priority 2017, published 2021).

This assay concerns E. coli RNase P RNA, M1 RNA. Put plainly: Inhibition of bacterial RNase P activity, IC50 determination (cleavage of pATSerUG by M1 RNA). Format: biochemical. The following applies: NI: No inhibition.

Where a name gives a salt, the structure may show the parent alone.

One may read the IC50 as the midpoint of a concentration-inhibition curve. On to `Cc1cccc(C(CC(=O)NCC2CCNCC2)c2cn(Cc3ccccc3)c3ccccc23)c1` (centres unmarked) [Compound 79, 3-(1-benzyl-1H-indol-3-yl)-N-(piperidin-4-ylmethyl)-3-(m-tolyl)propanamide hydrochloride salt], for which the IC50 is 129 µM.
On the same count and under the same terms, then `Cc1cccc(C(CC(=O)N[C@H]2CC[C@@H](N)CC2)c2cn(Cc3ccccc3)c3ccccc23)c1` (stereo partly drawn) [Compound 54, N-((1S,4S)-4-aminocyclohexyl)-3-(1-benzyl-1H-indol-3-yl)-3-(m-tolyl)propanamide hydrochloride salt], with 100 µM.
Still for that read-out and setting: then `Cc1cccc(C(CC(=O)NC2CCNCC2)c2cn(CC3CCCCC3)c3cccnc23)c1` (centres unmarked) [Compound 98, 3-(1-(cyclohexylmethyl)-1H-pyrrolo[3,2-b]pyridin-3-yl)-N-(piperidin-4-yl)-3-(m-tolyl)propanamide hydrochloride salt], with 269 µM; and `O=C(CCc1cn(Cc2ccccc2)c2ccccc12)NCCC1CCNCC1` [Compound 88, 3-(1-benzyl-1H-indol-3-yl)-N-(2-(piperidin-4-yl)ethyl)propanamide hydrochloride salt], with 842 µM; and `N[C@H]1CC[C@@H](NC(=O)CC(c2cccnc2)c2cn(Cc3ccccc3)c3ccccc23)CC1` (some centres unmarked) [Compound 75, N-((1s,4s)-4-aminocyclohexyl)-3-(1-benzyl-1H-indol-3-yl)-3-(pyridin-3-yl)propanamide hydrochloride salt], with 343 µM.
Take `O=C(CC(c1cscn1)c1cn(Cc2ccccc2)c2ccccc12)NCCC1CCNCC1` (centres unmarked) [Compound 95, 3-(1-benzyl-1H-indol-3-yl)-N-(2-(piperidin-4-yl)ethyl)-3-(thiazol-4-yl) propanamide hydrochloride salt]: the IC50 (hydrochloride salt) was 1300 µM.
`COc1ccccc1-c1ccc2c(c1)c(C(CC(=O)N[C@H]1CC[C@H](N)CC1)c1cccc(C)c1)cn2CC1CCCCC1.Cl` (some centres unmarked) [Compound 219, hydrochloride salt] had a 50% inhibitory concentration (IC50) of 7 µM.
On the same count and under the same terms, then `O=C(CC(c1cscn1)c1cn(Cc2ccccc2)c2ccccc12)NC1CCNCC1` (centres unmarked) [Compound 96, 3-(1-benzyl-1H-indol-3-yl)-N-(piperidin-4-yl)-3-(thiazol-4-yl) propanamide hydrochloride salt], with 911 µM.
Consider `O=C(CC(c1cscn1)c1cn(Cc2ccccc2)c2ccccc12)NCCC1CCNCC1` (centres unmarked) [Compound 76, 3-(1-benzyl-1H-indol-3-yl)-N-(2-(piperidin-4-yl)ethyl)-3-(thiazol-4-yl) propanamide hydrochloride salt], for which the IC50 (hydrochloride salt) is 197 µM.
For `O=C(CCc1cn(Cc2ccccc2)c2ccccc12)NC1CCNCC1` [Compound 102, 3-(1-benzyl-1H-indol-3-yl)-N-(piperidin-4-yl)propanamide hydrochloride salt], the IC50 was 950 µM.
The same measure, in the same setting: then `Cc1cccc(C(CC(=O)NCCC2CCNCC2)c2cn(Cc3ccccc3)c3ncncc23)c1` (centres unmarked) [Compound 94, 3-(7-benzyl-7H-pyrrolo[2,3-d]pyrimidin-5-yl)-N-(2-(piperidin-4-yl)ethyl)-3-(m-tolyl)propanamide hydrochloride salt], with 912 µM; and `O=C(CC(c1cccnc1)c1cn(Cc2ccccc2)c2ccccc12)NCCC1CCNCC1` (centres unmarked) [Compound 93, 3-(1-benzyl-1H-indol-3-yl)-N-(2-(piperidin-4-yl)ethyl)-3-(pyridin-3-yl) propanamide hydrochloride salt], with 308 µM.
On the same count and under the same terms, then `O=C(CC(c1cn(Cc2ccccc2)c2ccccc12)C1CCNCC1)NCCC1CCNCC1` (centres unmarked) [Compound 77, 3-(1-benzyl-1H-indol-3-yl)-3-(piperidin-4-yl)-N-(2-(piperidin-4-yl)ethyl)propanamide hydrochloride salt], with 140 µM; and `CCn1cc(C(CC(=O)NC2CCNCC2)c2cccc(C)c2)c2ccccc21` (centres unmarked) [Compound 91, 3-(1-ethyl-1H-indol-3-yl)-N-(piperidin-4-yl)-3-(m-tolyl)propanamide hydrochloride salt], with 1080 µM.
